Experimental data from publication PMC7997166, “In Silico Plasma Protein Binding Studies of Selected Group of Drugs Using TLC and HPLC Retention Data” (Pharmaceuticals, 2021).

Legend:
[1] = NP TLC on control silica gel plates without protein modifier (Rf); format: physicochemical; details: silica gel 60 F254 without BSA (control), mobile phase acetonitrile:acetate buffer pH 7.4:methanol 60:20:20, λ = 240 nm
Procedure: TLC was performed in normal and reversed phase (NP and RP) systems. Aluminum plates with silica gel (Merck, TLC Silica gel 60 F254) were used in the NP system and aluminum plates with silanized silica gel—RP (Merck, TLC Silica gel 60 RP-2 F254, silanized) were used in the RP system. The stationary phase surface modifying protein was bovine serum albumin. A 2-mg/mL solution of BSA (Sigma Aldrich, Bovine serum albumin lyophilised powder) in distilled water was applied on the surface using Desaga Sprayer SG 1 and air-dried.
Drug solutions in methanol (1 mg/mL) were applied on the plates with the Desaga HPTLC-Applicator AS 30, then the plates were developed in the mobile phase composed of acetonitrile, acetate buffer pH 7.4 and methanol, 60:20:20 (v/v/v). All solvents used—water, methanol and acetonitrile—were purchased from J.T. Baker (HPLC Gradient Grade). The acetate buffer (20mM) was prepared by dissolving 1.54 g of ammonium acetate in 1 L of distilled water. The pH was then adjusted with concentrated ammonia solution.
The mobility of the compounds was initially determined on NP and RP plates without the participation of the protein modifier. These were labeled as controls (C). The obtained retardation factor (Rf) values could be used to determine the composition of the mobile phase, as well as the specific effect of the protein modifier on the mobility of the APIs. […]

bovine serum albumin = bovine serum albumin (Bos taurus, UniProt P02769); assay: NP TLC on BSA-impregnated silica gel plates (retardation factor Rf); format: binding; details: silica gel 60 F254 impregnated with BSA, mobile phase acetonitrile:acetate buffer pH 7.4:methanol 60:20:20, λ = 240 nm
Chain of bovine serum albumin (P02769 25-607): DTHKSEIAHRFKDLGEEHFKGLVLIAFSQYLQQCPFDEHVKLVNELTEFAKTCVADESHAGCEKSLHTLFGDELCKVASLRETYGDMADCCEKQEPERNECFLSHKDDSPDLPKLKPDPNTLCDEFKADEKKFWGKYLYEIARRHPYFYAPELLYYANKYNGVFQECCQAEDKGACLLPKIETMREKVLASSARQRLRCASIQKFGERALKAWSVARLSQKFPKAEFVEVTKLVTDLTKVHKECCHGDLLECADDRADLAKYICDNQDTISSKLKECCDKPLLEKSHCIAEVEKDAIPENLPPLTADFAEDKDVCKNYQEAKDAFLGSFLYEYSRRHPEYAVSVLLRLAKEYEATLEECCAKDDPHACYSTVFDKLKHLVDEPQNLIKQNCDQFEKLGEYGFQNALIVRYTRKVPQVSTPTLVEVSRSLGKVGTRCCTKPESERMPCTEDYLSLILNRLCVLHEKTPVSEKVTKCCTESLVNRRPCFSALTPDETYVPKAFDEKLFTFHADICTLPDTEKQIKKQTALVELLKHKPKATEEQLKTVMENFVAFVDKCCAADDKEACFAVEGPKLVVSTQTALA

human serum albumin = human serum albumin (Homo sapiens, UniProt P02768); assay: HPLC on column with immobilized human serum albumin (CHIRALPAK HSA); format: binding; details: mobile phase acetate buffer pH 7.4:acetonitrile:methanol 85:10:5; flow 0.9 mL/min; 25 degrees Celsius; void time marker methanol t = 1.63
Chain of human serum albumin (P02768 25-609): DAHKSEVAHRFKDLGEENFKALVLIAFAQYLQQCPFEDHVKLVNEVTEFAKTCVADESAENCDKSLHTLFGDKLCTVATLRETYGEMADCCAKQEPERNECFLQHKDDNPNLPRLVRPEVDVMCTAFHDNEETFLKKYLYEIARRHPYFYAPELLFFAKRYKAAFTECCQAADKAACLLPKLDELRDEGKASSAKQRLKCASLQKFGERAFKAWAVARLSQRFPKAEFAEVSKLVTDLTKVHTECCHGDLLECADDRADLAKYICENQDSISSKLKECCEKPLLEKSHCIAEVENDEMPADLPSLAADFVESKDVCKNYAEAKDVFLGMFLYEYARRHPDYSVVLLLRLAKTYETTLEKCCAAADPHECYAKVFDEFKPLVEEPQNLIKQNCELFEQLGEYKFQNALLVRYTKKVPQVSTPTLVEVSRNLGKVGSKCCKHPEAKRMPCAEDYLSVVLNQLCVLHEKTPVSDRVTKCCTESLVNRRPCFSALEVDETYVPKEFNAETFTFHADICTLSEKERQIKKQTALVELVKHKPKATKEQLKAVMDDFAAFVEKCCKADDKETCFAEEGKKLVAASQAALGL
Procedure: HPLC analysis was performed on a Perkin Elmer Series 200 apparatus with a UV-VIS spectrometer for detection with an analytical wavelength of 210 nm. The mobile phase consisted of an acetate buffer with pH 7.4:acetonitrile:methanol, 85:10:5 (v/v/v). All solvents used—water, methanol and acetonitrile—were purchased from J.T. Baker (HPLC gradient class). The acetate buffer (10 mM) was prepared by dissolving 0.77 g of ammonium acetate in 1 L of distilled water. The pH was then adjusted with a concentrated ammonia solution.
API solutions in methanol (1 mg/mL, volume of injection: 10 μL) were injected into the HSA column using an automatic autosampler. The flow rate of the mobile phase was 0.9 mL/min. Since the column could not be thermostated, the room temperature was kept constant at 25 degrees Celsius by air conditioning. Chromatographic data (retention factor k and derivative: log k) were obtained for 129 APIs using the TotalChrom software connected to HPLC. Factor k, which is the ratio between the amount of analyte in the stationary phase to the amount in the mobile phase, was obtained from the equation k = (tR − tM)/tM where tR is retention time and tM is void time. The experiment was then repeated, and the collected retention factors (k) were means values from both series.

Row | Rf, control NP plate [1] | Rf, BSA-impregnated NP plate (bovine serum albumin) | retention time (t) on HPLC column with immobilized HSA (human serum albumin) | Structure (SMILES)
1 | 0.34 | 0.31 |  | CN(C)CCC=C1c2ccccc2COc2ccccc21 [doxepin]
2 |  |  | 3.71 | CC(C)c1nc(N(C)S(C)(=O)=O)nc(-c2ccc(F)cc2)c1/C=C/[C@@H](O)C[C@@H](O)CC(=O)O [rosuvastatin]
